{"source": "patent US7713696B2", "about": "“Genetic markers for prognosis of antifolate treatment efficacy” (Academisch Zeikenhuis Leiden H.O.D.N. Lumc, priority 2006, dated 2010)", "test_system": "recent-onset RA patients", "experiment": "Adverse drug events during six months of methotrexate therapy, BeSt trial", "type": "in vivo, human", "experimental": "Toxicity was evaluated by counting each reported adverse drug event and its consequences for the patient and treatment. Adverse drug events were spontaneously reported by the patients, or were reported as a result of non-specific questioning on patients' well-being by the investigator, by physical examination or laboratory measurements during follow up. In case of adverse drug events, methotrexate was continued at the lowest tolerated dose, or if methotrexate was not tolerated at all, the DMARD therapy was adjusted according to the protocol. Of all reported adverse drug events, the following non-infectious adverse drug events were evaluated explicitly: gastrointestinal adverse drug events defined as patients' general well-being, nausea, vomiting, diarrhea, and constipation; liver adverse drug events defined as all cases of elevated functional liver enzymes resulting in methotrexate dose adjustment or discontinuation; pneumonitis; skin and mucosal disorders. Moreover, patients were evaluated for leucopenia (<4.10^9/L), ALAT 3 times upper limit of normal (>135 U/L) and for alkaline phosphatase (AF) 3 times the upper limit of normal (>360 U/L).\nFor toxicity analysis, all patients who altered therapy from methotrexate before six months of follow-up were verified for adverse drug events after change of therapy and included in the analysis. The analyses of laboratory measurements were performed for completers only. The toxicity regression analysis was tested for the following confounders: weight, creatinine clearance, methotrexate dosage group (15 or 25 mg) and use of alcohol.", "key": {"[1]": {"conditions": "all patients with toxicity data (n=200)"}}}
{"smiles": "CN(Cc1cnc2nc(N)nc(N)c2n1)c1ccc(C(=O)N[C@@H](CCC(=O)O)C(=O)O)cc1", "note": "[methotrexate]", "values": [{"measurement": "Adverse drug events at six months, number of patients with event/patients", "setting": "AMPD1 CC genotype", "result": "42/146"}, {"measurement": "Adverse drug events at six months, percentage of patients", "setting": "AMPD1 CC genotype", "result": "(29%)"}, {"measurement": "Adverse drug events at six months, number of patients with event/patients", "setting": "AMPD1 CT genotype", "result": "16/50"}, {"measurement": "Adverse drug events at six months, percentage of patients", "setting": "AMPD1 CT genotype", "result": "(32%)"}, {"measurement": "Adverse drug events at six months, number of patients with event/patients", "setting": "AMPD1 TT genotype", "result": "1/3"}, {"measurement": "Adverse drug events at six months, percentage of patients", "setting": "AMPD1 TT genotype", "result": "(33%)"}, {"measurement": "Adverse drug events at six months, number of patients with event/patients", "setting": "ATIC CC genotype", "result": "21/94"}, {"measurement": "Adverse drug events at six months, percentage of patients", "setting": "ATIC CC genotype", "result": "(22%)"}, {"measurement": "Adverse drug events at six months, number of patients with event/patients", "setting": "ATIC CG genotype", "result": "33/91"}, {"measurement": "Adverse drug events at six months, percentage of patients", "setting": "ATIC CG genotype", "result": "(36%)"}, {"measurement": "times more likely to experience any adverse drug event", "setting": "ATIC G-allele carriers, six months, not significant after adjustment", "result": 2, "unit": "times"}, {"measurement": "Adverse drug events at six months, number of patients with event/patients", "setting": "ATIC GG genotype", "result": "6/15"}, {"measurement": "Adverse drug events at six months, percentage of patients", "setting": "ATIC GG genotype", "result": "(40%)"}, {"measurement": "Adverse drug events at six months, number of patients with event/patients", "setting": "ITPA CA genotype", "result": "8/30"}, {"measurement": "Adverse drug events at six months, percentage of patients", "setting": "ITPA CA genotype", "result": "(27%)"}, {"measurement": "Adverse drug events at six months, number of patients with event/patients", "setting": "ITPA CC genotype", "result": "51/169"}, {"measurement": "Adverse drug events at six months, percentage of patients", "setting": "ITPA CC genotype", "result": "(30%)"}, {"measurement": "Gastrointestinal (general wellbeing, nausea, vomiting, diarrhoea, constipation), frequency at 6 months, number of patients", "setting": "[1]", "result": 26}, {"measurement": "Gastrointestinal (general wellbeing, nausea, vomiting, diarrhoea, constipation), frequency at 6 months, percentage", "setting": "[1]", "result": "(13.0%)"}, {"measurement": "Hepatic elevated liver enzymes, frequency at 6 months, number of patients", "setting": "[1]", "result": 16}, {"measurement": "Hepatic elevated liver enzymes, frequency at 6 months, percentage", "setting": "[1]", "result": "(8%)"}, {"measurement": "Overall adverse drug events, total population, frequency at 6 months, number of patients", "setting": "[1]", "result": 60}, {"measurement": "Overall adverse drug events, total population, frequency at 6 months, percentage", "setting": "[1]", "result": "(30%)"}, {"measurement": "Pneumonitis, frequency at 6 months, number of patients", "setting": "[1]", "result": 0}, {"measurement": "Pneumonitis, frequency at 6 months, percentage", "setting": "[1]", "result": "(0%)"}, {"measurement": "Skin and mucosa disorders, frequency at 6 months, number of patients", "setting": "[1]", "result": 17}, {"measurement": "Skin and mucosa disorders, frequency at 6 months, percentage", "setting": "[1]", "result": "(8.5%)"}, {"measurement": "study population that experienced at least one adverse drug event during six months of treatment", "setting": "n=60 of 200", "result": "Thirty"}, {"measurement": "odds ratio for adverse drug events", "setting": "non-responders carrying the ATIC G-allele compared to all ATIC G-allele carriers, 95% CI 1.1,7.5", "result": 2.8}, {"measurement": "odds ratio for adverse drug events", "setting": "patients with good clinical response at six months compared to non-responders, 95% CI 0.22, 0.91", "result": 0.45}]}
